Measurements published in patent US20230084927A1, “GLUCOSE UPTAKE INHIBITORS AND USES THEREOF” (METABOMED LTD., priority 2019, published 2023).

Experiments:
Assay in all cases: Glucose transporter selectivity assay
Format in all cases: cell-based
[1] = target: T1, GLUT1 transporter (DLD1 cells) (Homo sapiens, UniProt P11166); settings: 5 mM glucose, 1 uM Rotenone, 15 min, read-out: IC50 (nM) DLD1-WT Glust1
T1 construct: DLD1 cells for GLUT1 transporter; endogenous in cells; host or cells: DLD1 (DLD1-WT)
T1 sequence (P11166 whole entry): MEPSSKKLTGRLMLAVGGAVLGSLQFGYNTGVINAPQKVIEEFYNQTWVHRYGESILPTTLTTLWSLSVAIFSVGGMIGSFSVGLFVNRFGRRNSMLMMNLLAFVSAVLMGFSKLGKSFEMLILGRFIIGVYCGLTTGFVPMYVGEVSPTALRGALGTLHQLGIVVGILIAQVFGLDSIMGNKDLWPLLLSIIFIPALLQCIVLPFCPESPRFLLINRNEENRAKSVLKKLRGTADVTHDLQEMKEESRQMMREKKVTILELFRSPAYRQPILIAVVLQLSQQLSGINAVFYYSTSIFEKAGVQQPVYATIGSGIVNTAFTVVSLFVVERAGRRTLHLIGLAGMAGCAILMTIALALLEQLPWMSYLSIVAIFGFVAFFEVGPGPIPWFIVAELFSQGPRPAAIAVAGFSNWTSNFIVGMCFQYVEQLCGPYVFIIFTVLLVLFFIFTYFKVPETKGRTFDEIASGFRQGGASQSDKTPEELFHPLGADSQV
Experimental: (§1) Glucose transporter selectivity assays were done as described by Siebeneicher et al (ChemMedChem 2016, 11, 1-12) with the following adjustments; DLD1 cells for GLUT1 transporter, DLD1-GLUT1−/− cells (Horizon discovery) for GLUT3 transporter and DLD1-GLUT1−/− overexpressing hGLUT2 cells for GLUT2 transporter. The cells were plated overnight in 96-well plate at 80% confluency in starvation medium (DMEM without glucose, 0.5 mM glutamine, 1 mM pyruvate and 1% FBS). The cells were then pretreated for 30 min with 1 uM Rotenone and the inhibitors (compound 145) at different concentrations. The assay was initiated by adding glucose (5 mM for DLD1 cells, 10 mM for DLD1-Glut1−/−) or fructose (10 mM for DLD1-Glut1−/−(hGLUT2) cells) and the plates were incubated for 15 min at 37° C. At the end of the incubation Cell-titer Glo was added to the wells and luminescence was measured. The inhibition IC50 was calculated using Prism software.

[2] = target: T2, GLUT2 transporter (DLD1-GLUT1−/− overexpressing hGLUT2 cells) (Homo sapiens, UniProt P11168); settings: 10 mM fructose, 1 uM Rotenone, 15 min, read-out: IC50 (nM) DLD-Glut1−/− (Glut2) Glut2
T2 construct: expressed in transfected cells; host or cells: DLD1-GLUT1−/−
T2 sequence (P11168 whole entry): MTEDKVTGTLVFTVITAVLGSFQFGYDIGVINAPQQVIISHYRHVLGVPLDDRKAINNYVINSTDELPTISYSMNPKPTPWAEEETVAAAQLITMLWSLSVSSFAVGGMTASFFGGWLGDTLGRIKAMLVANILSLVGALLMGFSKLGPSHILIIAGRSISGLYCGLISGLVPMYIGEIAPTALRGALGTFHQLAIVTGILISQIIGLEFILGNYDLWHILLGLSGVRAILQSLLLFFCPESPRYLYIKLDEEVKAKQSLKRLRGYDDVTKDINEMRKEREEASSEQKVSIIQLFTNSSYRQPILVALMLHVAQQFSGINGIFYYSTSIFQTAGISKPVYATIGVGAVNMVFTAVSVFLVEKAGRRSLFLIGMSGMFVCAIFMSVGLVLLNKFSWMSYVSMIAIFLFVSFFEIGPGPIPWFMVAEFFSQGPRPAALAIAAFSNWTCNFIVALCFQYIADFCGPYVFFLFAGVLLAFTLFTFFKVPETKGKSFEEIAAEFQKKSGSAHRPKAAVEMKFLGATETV
Experimental: as §1

[3] = target: T3, GLUT3 transporter (DLD1-GLUT1−/− cells) (Homo sapiens, UniProt P11169); settings: 10 mM glucose, 1 uM Rotenone, 15 min, read-out: IC50 (nM) DLD-Glut1−/− Glut3
T3 construct: DLD1-GLUT1−/− cells (Horizon discovery) for GLUT3 transporter; host or cells: DLD1-GLUT1−/−
T3 sequence (P11169 whole entry): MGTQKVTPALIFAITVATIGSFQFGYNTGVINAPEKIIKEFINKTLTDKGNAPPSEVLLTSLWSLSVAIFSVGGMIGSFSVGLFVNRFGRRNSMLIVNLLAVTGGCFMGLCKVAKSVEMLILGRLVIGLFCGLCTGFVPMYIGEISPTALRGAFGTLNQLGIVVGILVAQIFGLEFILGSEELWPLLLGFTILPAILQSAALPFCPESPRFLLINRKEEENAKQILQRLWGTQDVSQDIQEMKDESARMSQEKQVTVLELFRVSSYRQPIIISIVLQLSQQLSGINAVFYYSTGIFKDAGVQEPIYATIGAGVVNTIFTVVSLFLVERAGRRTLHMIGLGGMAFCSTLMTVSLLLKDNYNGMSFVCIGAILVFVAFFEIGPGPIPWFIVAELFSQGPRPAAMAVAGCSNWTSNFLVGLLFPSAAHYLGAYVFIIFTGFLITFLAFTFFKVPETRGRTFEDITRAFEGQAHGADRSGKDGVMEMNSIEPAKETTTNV
Experimental: as §1

IC50 [1]: 19 nM
IC50 [2]: 14 nM
IC50 [3]: 2 nM
Structure (SMILES): CC1(C)Cc2nc3sc4c(NCCc5ccc6[nH]cnc6c5)ncnc4c3cc2CO1 [Compound 145]
